Each structure is given as a SMILES string.

Data set [1] relates to human lung cancer cell line A549. Kind of data set: In vitro tumor cell proliferation inhibition assay (SRB method), A549. Type of data set: cell-based. To be noted: 72 hours, SRB; for IC50: mean of triplicate experiments, read-out: IC50 against A549; for inhibition at 10 µM: test compounds 10 μM, read-out: Inhibition rate on A549. Here is the method:
(§1) Sulforhodamine B Colorimetric Method (SRB Method) and MTT Colorimetric Method (MTT Method)
(§2) Human lung cancer cell line A549, human liver cancer cell line HepG2, human colon cancer cell line HCT116, human colon cancer cell line HT-29, human leukemia cell line K562, human cervical cancer cell line hela, and human breast cancer cell line MCF-7, all provided by the Shanghai Cell Bank, Chinese Academy of Sciences.
(§3) A549, HepG2, HCT116, HT-29, K562, hela, and MCF-7 cells were cultured respectively in 1640, DMEM, 5A, 5A, 1640, DMEM, and 1640 culture media containing 10 wt % heat-inactivated FBS (fetal bovine serum), 2 mM L-glutamine, 100 U/mL penicillin and […] streptomycin, in a cell incubator at 37° C. and 5 vol % CO2. The medium was replaced every two days. After the A549, HepG2, HCT116, HT-29, hela, and MCF-7 cells were confluent, they were digested with 0.05% (w/v) trypsin-EDTA at 37° C., passaged, and maintained in the logarithmic growth phase suitable for testing. The K562 suspension cells were passaged without digestion, and maintained in the logarithmic growth phase suitable for testing. The A549, HepG2, HCT116, HT-29, K562, hela, and MCF-7 cells in the logarithmic growth phase were inoculated to 96-well plates at 5000, 5000, 5000, 5000, 6000, 5000, 5000 per well, respectively, and cultured at 37° C. for 24 h.
(§4) Then various concentrations of test samples were added. The positive control group was doxorubicin hydrochloride (final concentration was 1 μM), the solvent control group was an equal volume of DMSO, and the blank control group was an equal volume of a culture medium, with 4 replicate wells for each concentration. After the A549, HepG2, HCT116, HT-29, hela, and MCF-7 cells were treated with the test drugs for 72 hours, the cells in each well were fixed with 50% (m/v) cold trichloroacetic acid (TCA) and stained with SRB. Then […] of Tris solution was added, and the OD value at the wavelength of 540 nm was measured using a microplate reader. For K562 cells, after 72 hours of treatment with the test drugs, […] of 5 mg/mL MTT was added, and the cells were incubated at 37° C. for 4 hours. Next, […] of a triplet solution (10% SDS, 5% isobutanol, 12 mM HCl) was added, followed by further incubation for 12 to 20 hours. The OD value at the wavelength of 570 nm was measured using a microplate reader.
(§5) The tumor cell growth inhibition rate was calculated according to the following equation: […]
(§6) in the equation, • OD540 control well is the absorbance of the control group; • OD540 dosing well is the absorbance of the test group.
(§7) IC50 values of the test drugs (calculated by GraphPad Prism 5 software) were the means of the results of triplicate experiments.
(In SRB staining, fixed cells bind dye roughly in proportion to their protein.)

Data set [2] deals with human colon cancer cell line HT-29. Put plainly: In vitro tumor cell proliferation inhibition assay (SRB method), HT-29. Type of data set: cell-based. To be noted: 72 hours, SRB, mean of triplicate experiments, read-out: IC50 against HT-29. Here is the method: as §1, §2, §3, §4, §5, §6, §7
Data set [3] relates to human breast cancer cell line MCF-7. Put plainly: In vitro tumor cell proliferation inhibition assay (SRB method), MCF-7. To be noted: MCF7, 72 hours, SRB, mean of triplicate experiments, read-out: IC50 against MCF-7. Type of data set: cell-based. Here is the method: as §1, §2, §3, §4, §5, §6, §7
For data set [4], the system named is human colon cancer cell line HCT116. Put plainly: In vitro tumor cell proliferation inhibition assay (SRB method), HCT116. To be noted: SRB; for IC50: HCT-116, 72 hours, mean of triplicate experiments, read-out: IC50 against HCT116; for inhibition at 10 µM: HCT-116, test compounds 10 μM, 72 hours, read-out: Inhibition rate on HCT116. Type of data set: cell-based. Here is the method:
as §1, §2, §3, §4, §5, §6, §7

Data set [5] concerns human liver cancer cell line HepG2. Kind of data set: In vitro tumor cell proliferation inhibition assay (SRB method), HepG2. Type of data set: cell-based. To be noted: 72 hours, SRB; for IC50: mean of triplicate experiments, read-out: IC50 against HepG2; for inhibition at 10 µM: test compounds 10 μM, read-out: Inhibition rate on HepG2. As to the method:
as §1, §2, §3, §4, §5, §6, §7

The test system of data set [6] is human cervical cancer cell line hela. Kind of data set: In vitro tumor cell proliferation inhibition assay (SRB method), hela. The following applies: 72 hours, SRB, mean of triplicate experiments, read-out: IC50 against hela. Type of data set: cell-based. As to the method: as §1, §2, §3, §4, §5, §6, §7
Data set [7] deals with A549, HepG2, HCT116, HT-29, K562, hela, and MCF-7 cell lines. Kind of data set: In vitro tumor cell proliferation inhibition assay, summary over all 7 types of cells. Type of data set: cell-based. The following applies: Homo sapiens, upper bound over A549, HepG2, HCT116, HT-29, K562, hela, MCF-7. Here is the method:
as §1, §2, §3, §4, §5, §6, §7

In data set [8] the test system is HT-29 cells. Kind of data set: HT-29 cell-BALB/c nude mouse subcutaneous tumor transplantation experiment. Type of data set: in vivo, BALB/c nude mice. To be noted: HT-29 model, test compound 0.5 mg/mL at 10 mL/kg tail vein, 15 times, 6 times; for inhibitory effect (inhibition rate of average tumor weight, FIG. 6): 5-fu 20 mg/kg; for average tumor volume at the end of the experiment: 5 times a week, 5-fu 20 mg/kg twice a week. Here is the method:
(§8) BALB/c nude mice were subcutaneously inoculated with A549, HCT116 and HT-29 cells to establish tumor transplantation models. • Solvent Control Group: 2% DMSO+normal saline+sodium carbonate (the molar ratio of the compound to sodium carbonate is 1:2) • 5-fluorouracil control group: 5-fluorouracil injection (20 mg/kg);
(§9) Test compound group: 1 mg of a test compound was fully dissolved in […] DMSO, and then diluted with normal saline to 0.5 mg/mL. 2 mL was used each time, freshly prepared before use on the same day.
(§10) Eight mice were in each group.
(§11) The solvent control group and the test compound group were administered at a dose of 10 mL/kg via tail vein injection (the dose for each administration was calculated based on the body weight on that day), 5 times a week, for a total of 15 times. The animals were euthanized after the last administration.
(§12) The 5-fluorouracil control group was administered twice a week for a total of 6 times.
(§13) The body weight and tumor diameter were measured twice a week during the administration period. Tumors and the spleen were removed and weighed after euthanasia. The tumor volume, relative tumor volume (RTV), relative tumor growth rate (T/C %), tumor volume inhibition rate (IRTV%), and tumor weight inhibition rate (IRTW%) were calculated. Data for animals that died accidentally were only listed but excluded from statistical analysis.

In data set [9] the test system is human leukemia cell line K562. Put plainly: In vitro tumor cell proliferation inhibition assay (MTT method), K562. To be noted: 72 hours, mean of triplicate experiments, read-out: IC50 against K562. Type of data set: cell-based. Here is the method:
as §1, §2, §3, §4, §5, §6, §7
Background: Tetrazolium assays rely on reduction of a dye to a coloured formazan, in cell work by metabolically active cells.

For data set [10], the system named is A549 cells. Kind of data set: A549 cell-BALB/c nude mouse subcutaneous tumor transplantation experiment. The following applies: A549 model, test compound 0.5 mg/mL at 10 mL/kg tail vein, 15 times, 6 times; for average tumor volume at the end of the experiment: 5 times a week, 5-fu 20 mg/kg twice a week; for inhibitory effect (inhibition rate of average tumor weight, FIG. 6): 5-fu 20 mg/kg. Type of data set: in vivo, BALB/c nude mice. Here is the method:
as §8, §9, §10, §11, §12, §13

Data set [11] has as its system HCT116 cells. Put plainly: HCT116 cell-BALB/c nude mouse subcutaneous tumor transplantation experiment. Type of data set: in vivo, BALB/c nude mice. To be noted: HCT116 model, test compound 0.5 mg/mL at 10 mL/kg tail vein, 15 times, 6 times; for average tumor volume at the end of the experiment: 5 times a week, 5-fu 20 mg/kg twice a week; for inhibitory effect (inhibition rate of average tumor weight, FIG. 6): 5-fu 20 mg/kg. As to the method: as §8, §9, §10, §11, §12, §13

Data set [12] is described as follows: Body weight of tumor-transplanted mice during administration. Type of data set: in vivo. To be noted: A549, HCT116 and HT-29 transplanted mice, during administration period. Here is the method:
as §8, §9, §10, §11, §12, §13

In the case of `Cc1cc(O)c(CNC(=O)CCl)c(C)c1Cl` [Compound I-7, N-(2,4-dimethyl-3-chloro-6-hydroxybenzyl) chloroacetamide], the IC50 (usually the concentration that inhibits the measured activity by half) in [1] amounted to 8.11 µM; in data set [2], 28.9 µM; in data set [3], 5.75 µM; in [4], 7.44 µM; in [5], 8.61 µM; in data set [6], 9.68 µM. Besides, the IC50 was less than 35.5 µM in [7] and 12.7 µM in data set [9]. For the same molecule, the inhibition (usually the change of the read-out against control, counted positive when it falls) at 10 µM turned out to be 55% in [1], 95.1% in data set [4] and 95.8% in data set [5]. Further, the “inhibitory effect (inhibition rate of average tumor weight, FIG. 6)” value (“inhibitory effect” below) in [8] worked out at 26.52%; in data set [10], 33.56%. Besides, the “average tumor volume at the end of the experiment” value (shortened to “average tumor volume at the end”) is on record as 559.37 mm^3 in data set [10] and 624.48 mm^3 in data set [11].

On to `O=c1[nH]cc(F)c(=O)[nH]1` [Compound 5-fu, 5-fluorouracil, reference compound], for which the “body weight compared to the solvent control (FIG. 2)” value in data set [12] was “significant weight loss”. For the same molecule, the “average tumor volume at the end” value is 658.02 mm^3 in data set [8], 322.03 mm^3 in data set [10] and 599.83 mm^3 in data set [11]. Moreover, the entries for the “inhibitory effect” value in [8], in [10] and in data set [11] were 44.60%, 43.11% and 44.81%, respectively.

Turning to `CC(=O)NCc1c(C)cc(O)c(C)c1C` [Compound I-6, N-(2,3,6-trimethyl-4-hydroxybenzyl) acetamide], the half-inhibitory concentration (IC50) in [1] is 5.95 µM; in data set [2] it was 35.4 µM; in data set [3] it was 6.98 µM; in [4], 7.36 µM; in data set [5], 8.36 µM; in data set [6], 8.86 µM. For the same molecule, the IC50 in data set [7] was less than 35.5 µM; in data set [9], 9.74 µM. Moreover, the results for the inhibition at 10 µM in data set [1], in data set [4] and in [5] were 94.9%, 96.6% and 81.1%, respectively. In addition, the figures for the “average tumor volume at the end” value in data set [8] and in [10] were 559.37 mm^3 and 492.12 mm^3, respectively. For the same molecule, the “inhibitory effect” value in data set [8] came to 32.07%; in data set [10], 35.19%.

Take `C=CC(=O)NCc1c(O)c(O)c(O)c(CNC(=O)C=C)c1C(=O)O` [Compound I-1, N-(2,3,4-trihydroxy-5-acrylamidomethyl-6-carboxybenzyl) acrylamide]: the IC50 in [1] amounted to 2.73 µM; in [2], 16.6 µM; in data set [3] it was 4.6 µM; in data set [4], 4.77 µM; in data set [5] it was 8.31 µM; in data set [6] it was 23.8 µM. The IC50 in data set [9] is greater than 50 µM. Moreover, the inhibition at 10 µM in data set [1] worked out at 89.3%; in data set [4], 92.3%; in data set [5] it was 57.5%. For the same molecule, the “average tumor volume at the end” value in data set [10] was 539.48 mm^3. For the same molecule, the “inhibitory effect” value in [10] amounted to 33.25%; in data set [11], 35.13%.

As to `COc1c(CNC(=O)CCl)c(C)cc(C)c1CNC(=O)CCl` [Compound I-4, N-(2-methoxy-3-chloroacetamidomethyl-4,6-dimethylbenzyl) chloroacetamide], the IC50 in [1] came out at 6.57 µM; in [2] it was 17.6 µM; in data set [3] it was 5.75 µM; in data set [4] it was 3.96 µM; in [5], 7.9 µM; in data set [6] it was 9.38 µM. The IC50 in [7] is less than 35.5 µM; in [9], 9.36 µM. The inhibition at 10 µM in data set [1] is 69%; in data set [4], 69.3%; in [5], 82.9%. Besides, the “inhibitory effect” value in data set [8] worked out at 23.90%; in data set [10], 22.05%; in data set [11] it was 29.86%. For the same molecule, the “average tumor volume at the end” value in data set [11] was 574.36 mm^3.

The values are drawn from US20260055051A1, “Compound with anti-tumor activity, preparation method therefor, and use thereof” (Ocean University of China, priority 2022, published 2026).
